Data on 12 compounds can be found in US10889581B2, “Cyclopropyl fused thiazine derivatives as beta-secretase inhibitors and methods of use” (AMGEN INC., priority 2016, dated 2021).

For series [1], the system named is Aβ peptide. The following applies: sustained and dose-dependent; cited from earlier work.
The conditions of series [2]: cited from earlier work.
The subject of series [3] is Aβ peptide. The note with it: nonhuman primates; cited from earlier work.
Series [4] has as its target T1, BACE1 (Homo sapiens (Human), UniProt P56817). Kind of series: In vitro enzymatic BACE1 FRET assay. The following applies: pH 4.5, read-out: BACE1 Enzyme IC50. The class given is biochemical.
Target sequence in this assay (P56817 46-501): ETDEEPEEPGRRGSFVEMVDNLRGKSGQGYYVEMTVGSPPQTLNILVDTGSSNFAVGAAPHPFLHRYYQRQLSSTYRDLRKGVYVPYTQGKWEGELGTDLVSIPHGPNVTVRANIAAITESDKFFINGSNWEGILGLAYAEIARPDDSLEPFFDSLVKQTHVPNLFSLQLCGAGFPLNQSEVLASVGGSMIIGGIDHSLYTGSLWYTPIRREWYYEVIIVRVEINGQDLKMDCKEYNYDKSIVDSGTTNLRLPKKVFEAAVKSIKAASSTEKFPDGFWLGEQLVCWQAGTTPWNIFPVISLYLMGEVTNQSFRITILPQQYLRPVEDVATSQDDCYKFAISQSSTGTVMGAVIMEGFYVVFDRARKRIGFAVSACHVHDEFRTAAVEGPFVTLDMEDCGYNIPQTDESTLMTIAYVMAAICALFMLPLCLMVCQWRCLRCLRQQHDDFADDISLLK
The target in series [5] is T1, BACE1. As to the kind of experiment: In vitro BACE1 cell-based assay (Aβ40 in conditioned medium of cells stably expressing APP, HTRF). In general terms: TR-FRET usually uses a lanthanide donor and a delayed reading to cut background.
Target sequence in this assay (P56817 46-501, species assumed): as the sequence (P56817 46-501) above
For series [6], the target named is human recombinant BACE2 (Homo sapiens (Human), UniProt Q9Y5Z0). As to the kind of experiment: In vitro enzymatic BACE2 FRET assay. In kind it is biochemical. The following applies: pH 4.5, read-out: BACE2 Enzyme IC50.
human recombinant BACE2, sequence (Q9Y5Z0 63-518): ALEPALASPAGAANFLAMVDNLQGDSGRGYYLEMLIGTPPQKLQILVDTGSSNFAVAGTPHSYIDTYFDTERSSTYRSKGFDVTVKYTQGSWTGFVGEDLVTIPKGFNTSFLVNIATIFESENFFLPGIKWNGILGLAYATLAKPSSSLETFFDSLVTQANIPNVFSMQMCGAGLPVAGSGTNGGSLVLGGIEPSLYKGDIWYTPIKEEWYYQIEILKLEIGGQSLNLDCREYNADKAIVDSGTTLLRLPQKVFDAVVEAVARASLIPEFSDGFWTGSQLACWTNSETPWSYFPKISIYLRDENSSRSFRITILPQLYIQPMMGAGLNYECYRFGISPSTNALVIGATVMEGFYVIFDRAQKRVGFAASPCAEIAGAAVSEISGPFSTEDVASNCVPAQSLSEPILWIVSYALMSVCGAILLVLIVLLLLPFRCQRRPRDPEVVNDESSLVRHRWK
Series [7] addresses Recombinant CatD (Homo sapiens (Human), UniProt P07339). As to the kind of experiment: In vitro enzymatic Cathepsin D (CatD) FRET assay. The class given is biochemical. The following applies: pH 3.5, read-out: Cat D Enzyme IC50.
Series [8] has as its system Aβ peptide. The following applies: oral dose of 95 mg once daily; cited from earlier work.
Series [9] relates to pigment epithelium of the rat's eye. The note with it: higher compound dose given for three months; cited from earlier work.
Setting [10] is: Aβ40, 24 h incubation, read-out: BACE1 Cell IC50.

Each structure is given as a SMILES string.

Recombinant CatD, sequence (P07339 65-412): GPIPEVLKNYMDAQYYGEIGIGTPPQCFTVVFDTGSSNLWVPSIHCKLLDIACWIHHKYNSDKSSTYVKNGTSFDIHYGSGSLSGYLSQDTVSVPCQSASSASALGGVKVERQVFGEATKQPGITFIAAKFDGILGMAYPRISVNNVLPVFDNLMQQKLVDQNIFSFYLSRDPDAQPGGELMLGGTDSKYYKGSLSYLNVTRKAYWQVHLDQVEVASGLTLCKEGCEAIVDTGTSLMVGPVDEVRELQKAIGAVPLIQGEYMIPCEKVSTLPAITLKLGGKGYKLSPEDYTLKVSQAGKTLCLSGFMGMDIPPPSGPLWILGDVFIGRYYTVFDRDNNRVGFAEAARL

For `CN1C(=N)N[C@](C)(c2cc(NC(=O)c3ccc(F)cn3)ccc2F)CS1(=O)=O` [MK-8931], in series [1], the “CSF Aβ peptide concentrations” value is given as “significantly reduced”. The safety profile entry in series [2] (phase I clinical trials) was “excellent safety profile with no immediately noticeable side effects”.
As for `C[C@H]1OC[C@]2(c3cc(NC(=O)c4cnc(C(F)F)cn4)ccc3F)N=C(N)SC[C@H]12` [Example E2609], in series [3], the “reduction in Aβ peptide levels in the CSF and plasma” value is reported as “significant reduction”. For the same compound, the clinical safety concerns result in series [2] (repeated doses up to 200 mg, phase I clinical trial) is given as “did not show clinical significant safety concerns”.
The IC50 is the concentration that gives 50% inhibition. With `Cc1cc(C#N)cnc1C#Cc1ccc(F)c([C@@]2(CF)N=C(N)S[C@@]3(/C=C/C(=O)N4CCOCC4)C[C@H]32)c1` [Example 116, 6-((3-((1R,5S,6S)-3-amino-5-(fluoromethyl)-1-((E)-3-morpholino-3-oxoprop-1-en-1-yl)-2-thia-4-azabicyclo[4.1.0]hept-3-en-5-yl)-4-fluorophenyl)ethynyl)-5-methylnicotinonitrile], the IC50 in [4] was found to be 0.005 µM; in series [5] (setting [10]), 0.018 µM; in [6], 0.166 µM; in series [7], 172 µM.
`Cc1cc(C#N)cnc1C#Cc1ccc(F)c([C@@]2(CF)N=C(N)S[C@@]3(CCC(=O)N4CCOCC4)C[C@H]32)c1` [Example 120, 6-((3-((1S,5S,6S)-3-amino-5-(fluoromethyl)-1-(3-morpholino-3-oxopropyl)-2-thia-4-azabicyclo[4.1.0]hept-3-en-5-yl)-4-fluorophenyl)ethynyl)-5-methylnicotinonitrile]: the half-maximal inhibitory concentration (IC50) in series [4] was 0.011 µM; in series [5] (setting [10]) it was 0.052 µM; in [6], 0.179 µM; in [7], 190 µM.
For the compound `Cc1cc(C#N)cnc1C#Cc1ccc(F)c([C@@]2(C)N=C(N)S[C@@]3(C#N)C[C@H]32)c1` [Example 126, (1S,5S,6S)-3-amino-5-(5-((5-cyano-3-methylpyridin-2-yl)ethynyl)-2-fluorophenyl)-5-methyl-2-thia-4-azabicyclo[4.1.0]hept-3-ene-1-carbonitrile], the IC50 is 0.021 µM in series [4], 0.075 µM in series [5] (setting [10]), 0.617 µM in [6] and 268 µM in series [7].
The corresponding values for `CN(C)C(=O)/C=C/[C@]12C[C@H]1[C@@](CF)(c1cc(C#Cc3ccc(C#N)cn3)ccc1F)N=C(N)S2` [Example 112, (E)-3-((1R,5S,6S)-3-amino-5-(5-((5-cyanopyridin-2-yl)ethynyl)-2-fluorophenyl)-5-(fluoromethyl)-2-thia-4-azabicyclo[4.1.0]hept-3-en-1-yl)-N,N-dimethylacrylamide] are 0.025 µM, 0.139 µM, 1.59 µM and 176 µM.
For `Cc1cn(C[C@]23C[C@H]2[C@@](CF)(c2cc(C#Cc4ccc(C#N)cn4)ccc2F)N=C(N)S3)nn1` [Example 115, 6-((3-((1S,5S,6S)-3-amino-5-(fluoromethyl)-1-((4-methyl-1H-1,2,3-triazol-1-yl)methyl)-2-thia-4-azabicyclo[4.1.0]hept-3-en-5-yl)-4-fluorophenyl)ethynyl)nicotinonitrile], the IC50 in series [4] was determined as 0.109 µM; in series [5] (setting [10]) it was 0.142 µM; in series [6], 2.18 µM; in series [7], 1030 µM.
As to `C[C@@]1(c2cc(NC(=O)c3ccc(C#N)cn3)ccc2F)C=CSC(N)=N1` [JNJ-54861911], the “Aβ peptide reduction in CSF” value in series [8] is “up to 95%”.
On to `N#Cc1ccc(C#Cc2ccc(F)c([C@@]3(CF)N=C(N)S[C@@]4(Cn5ccnc5)C[C@H]43)c2)nc1` [Example 125, 6-((3-((1S,5S,6S)-1-((1H-imidazol-1-yl)methyl)-3-amino-5-(fluoromethyl)-2-thia-4-azabicyclo[4.1.0]hept-3-en-5-yl)-4-fluorophenyl)ethynyl)nicotinonitrile], for which the IC50 amounted to 0.583 µM in [4], 0.118 µM in series [5] (setting [10]), 8.08 µM in [6] and 248 µM in series [7].
As to `C[C@@]1(c2cc(-c3cncnc3)c(F)cc2F)CCSC(N)=N1` [LY 2811376], the eye toxicity finding result in series [9] is on record as “damaged the pigment epithelium of the rat's eye”.
As for `N#Cc1cnc(C#Cc2ccc(F)c([C@@]3(CF)N=C(N)S[C@@]4(CF)C[C@H]43)c2)cn1` [Example 103, 5-((3-((1S,5S,6S)-3-amino-1,5-bis(fluoromethyl)-2-thia-4-azabicyclo[4.1.0]hept-3-en-5-yl)-4-fluorophenyl)ethynyl)pyrazine-2-carbonitrile], the IC50 is 0.086 µM in series [4], 3.91 µM in series [5] (setting [10]), 1.59 µM in series [6] and 229 µM in series [7].
Turning to `NC1=N[C@](CF)(c2cc(C#Cc3cc(Cl)ccn3)ccc2F)[C@@H]2C[C@]2(CF)S1` [Example 138, (1S,5S,6S)-5-(5-((4-chloropyridin-2-yl)ethynyl)-2-fluorophenyl)-1,5-bis(fluoromethyl)-2-thia-4-azabicyclo[4.1.0]hept-3-en-3-amine], the IC50 in series [4] is 1.12 µM; in series [5], 4.85 µM; in series [6], 0.077 µM; in series [7], 903 µM.
